Measured values as given in patent US20070249620A1, “Urea Derivative” (priority 2004, published 2007).

Legend:
[1] = molecular target: T1, mouse DGAT1 (Mus musculus, UniProt Q9Z2A7); assay: DGAT1 inhibitory effect test (microsome fraction, [14C]-oleoyl-CoA, triglyceride radioactivity by TLC); format: biochemical; conditions: 0.5 h; concentration of the test compound 0.1 μg/ml; mouse DGAT1 microsomes, 23° C., 30 minutes; read-out: Inhibitory ratio
T1 construct: made in house; host or cells: insect cells (High Five, Sf9, Sf21, etc.), baculovirus expression system (Invitrogen)
T1 sequence (Q9Z2A7 1-498): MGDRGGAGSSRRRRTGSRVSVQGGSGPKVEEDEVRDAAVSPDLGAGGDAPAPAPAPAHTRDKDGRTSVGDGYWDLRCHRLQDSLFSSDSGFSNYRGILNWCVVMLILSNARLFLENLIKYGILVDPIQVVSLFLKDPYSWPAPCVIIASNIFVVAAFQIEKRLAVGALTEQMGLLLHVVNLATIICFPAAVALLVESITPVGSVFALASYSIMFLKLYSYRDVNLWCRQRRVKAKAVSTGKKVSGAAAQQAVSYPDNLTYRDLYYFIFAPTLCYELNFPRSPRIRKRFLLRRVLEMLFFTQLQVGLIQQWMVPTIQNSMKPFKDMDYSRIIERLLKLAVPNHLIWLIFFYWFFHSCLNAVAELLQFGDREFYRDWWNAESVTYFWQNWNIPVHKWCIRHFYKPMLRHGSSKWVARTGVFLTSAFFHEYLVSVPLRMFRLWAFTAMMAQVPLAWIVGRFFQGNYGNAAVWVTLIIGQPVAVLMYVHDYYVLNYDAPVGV
Summary of the method: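 Inhibition was scored from radiolabelled triglyceride separated by TLC, relative to vehicle and net of a 0-min background. The reaction ran for 30 min at room temperature (23 °C) in Tris-HCl pH 8.0 with MgCl2, BSA and Triton X-100. Substrates were 30 μM [14C]-oleoyl-CoA and 0.5 mM dioleoylglycerol, with mouse DGAT1 microsomes from baculovirus-infected insect cells as enzyme.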

Structure (SMILES) | inhibition at 0.1 µg/mL [1] [%] | melting point [°C]
COc1ccc(C)cc1NC(=O)Nc1ccc(N2CCN(C(=O)Nc3ncccc3C)CC2)c(F)c1 [Example 312, 4-{2-fluoro-4-[3-(2-methoxy-5-methyl-phenyl)-ureido]-phenyl}-piperazine-1-carboxylic acid (3-methyl-pyridin-2-yl)-amide] | ≥ 50 | 188 to 190
COc1ccc(C)cc1NC(=O)Nc1ccc(N2CCN(C(=O)Nc3ncccc3C)CC2)c(C)c1 [Example 313, 4-{4-[3-(2-methoxy-5-methyl-phenyl)-ureido]-2-methyl-phenyl}-piperazine-1-carboxylic acid (3-methyl-pyridin-2-yl)-amide] | ≥ 50 | 144 to 146
COc1ccc(C)cc1NC(=O)Nc1ccc(C2=CCN(C(=O)Nc3ncccc3C)CC2)cc1 [Example 324, 4-{4-[3-(2-methoxy-5-methyl-phenyl)-ureido]-phenyl}-3,6-dihydro-2H-pyridine-1-carboxylic acid (3-methyl-pyridin-2-yl)-amide] | ≥ 50 | 195 to 198
COc1cc(NC(=O)Nc2ccc(N3CCN(C(=O)Nc4ncc(F)cc4F)CC3)cc2)cc(OC)c1 [Example 341, 4-{4-[3-(3,5-dimethoxy-phenyl)-ureido]-phenyl}-piperazine-1-carboxylic acid (3,5-difluoro-pyridin-2-yl)-amide] | ≥ 50 | 204 to 205
O=C(Nc1ccc(N2CCN(C(=O)C(O)c3ccccc3Cl)CC2)nc1)Nc1ccccc1F (stereo not drawn) [Example 377, 1-(6-{4-[2-(2-chloro-phenyl)-2-hydroxy-acetyl]-piperazin-1-yl}-pyridin-3-yl)-3-(2-fluoro-phenyl)-urea] | ≥ 50 | 127 to 128
COc1ccc(C)cc1NC(=O)Nc1ccc(N2CCN(C(=O)C(O)c3ccccc3Cl)CC2)cc1 (stereo not drawn) [Example 378, 1-(4-{4-[2-(2-chloro-phenyl)-2-hydroxy-acetyl]-piperazin-1-yl}-phenyl)-3-(2-methoxy-5-methyl-phenyl)-urea] | ≥ 50 | 118 to 120
O=C(Nc1ccc(N2CCN(C(=O)C(O)c3ccc(O)cc3Cl)CC2)nc1)Nc1ccccc1F (stereo not drawn) [Example 379, 1-(6-{4-[2-(2-chloro-4-hydroxy-phenyl)-2-hydroxy-acetyl]-piperazin-1-yl}-pyridin-3-yl)-3-(2-fluoro-phenyl)-urea] | ≥ 50 | 133 to 135
COc1ccc(C)cc1NC(=O)Nc1ccc(N2CCN(C(=O)C(O)c3ccccc3Cl)CC2)nc1 (stereo not drawn) [Example 380, 1-(6-{4-[2-(2-chloro-phenyl)-2-hydroxy-acetyl]-piperazin-1-yl}-pyridin-3-yl)-3-(2-methoxy-5-methyl-phenyl)-urea] | ≥ 50 | 118 to 120
O=C(Nc1ccc(N2CCN(C(=O)Nc3ccc(C(=O)O)cc3Cl)CC2)cc1)Nc1ccccc1F [Example 388, 3-chloro-4-[(4-{4-[3-(2-fluoro-phenyl)-ureido]-phenyl}-piperazine-1-carbonyl)-amino]-benzoic acid] | ≥ 50 | 250 to 253
CCOP(=O)(O)Cc1ccc(NC(=O)N2CCN(c3ccc(NC(=O)Nc4cc(C)ccc4OC)cc3)CC2)c(C)c1 [Example 391, {4-[(4-{4-[3-(2-methoxy-5-methyl-phenyl)-ureido]-phenyl}-piperazine-1-carbonyl)-amino]-3-methyl-benzyl}-phosphonic acid monoethyl ester] | ≥ 50 | 165 to 173
COC(=O)Cc1ccc(OC(=O)N2CCN(c3ccc(NC(=O)Nc4cc(C)ccc4OC)cc3)CC2)c(Cl)c1 [Example 393, 4-{4-[3-(2-methoxy-5-methyl-phenyl)-ureido]-phenyl}-piperazine-1-carboxylic acid 2-chloro-4-methoxycarbonylmethyl-phenyl ester] | ≥ 50 | 209 to 210
COc1ccc(C)cc1NC(=O)Nc1ccc(N2CCN(C(=O)Oc3ccc(CC(=O)O)cc3Cl)CC2)cc1 [Example 394, 4-{4-[3-(2-methoxy-5-methyl-phenyl)-ureido]-phenyl}-piperazine-1-carboxylic acid 4-carboxymethyl-2-chloro-phenyl ester] | ≥ 50 | 199 to 200
COc1ccc(C)cc1NC(=O)Nc1ccc(N2CCN(C(=O)Oc3ccc(CCO)cc3Cl)CC2)cc1 [Example 395, 4-{4-[3-(2-methoxy-5-methyl-phenyl)-ureido]-phenyl}-piperazine-1-carboxylic acid 2-chloro-4-(2-hydroxy-ethyl)-phenyl ester] | ≥ 50 | 189 to 190
COc1ccc(C)cc1NC(=O)Nc1ccc2c(c1)CCN(C(=O)Oc1ccc(CCO)cc1Cl)C2 [Example 396, 6-[3-(2-methoxy-5-methyl-phenyl)-ureido]-3,4-dihydro-1H-isoquinoline-2-carboxylic acid 2-chloro-4-(2-hydroxy-ethyl)-phenyl ester] | ≥ 50 | 95 to 98
COc1ccc(C)cc1NC(=O)Nc1ccc2c(c1)CCN(C(=O)Oc1ccc(C(=O)O)cc1Cl)C2 [Example 397, 6-[3-(2-methoxy-5-methyl-phenyl)-ureido]-3,4-dihydro-1H-isoquinoline-2-carboxylic acid 4-carboxy-2-chloro-phenyl ester] | ≥ 50 | 196 to 198
